Results reported in patent publication US20220372491A1, “TREATMENT OF RENAL CYSTIC DISEASE” (MONASH UNIVERSITY, priority 2019, published 2022).

Legend:
mTOR = mTOR (Mus musculus, UniProt P26883+Q9JLN9); settings: model not stated; cited from earlier work
Pkd1^Δ/Δ mice = experiment: Oral MK2206 treatment of Pkd1^Δ/Δ mice (ADPKD model); type: in vivo, mouse
Procedure: (§1) MK2206 treatment of Inpp5e^Δ/+ and Inpp5e^Δ/Δ mice commenced at P9 and were performed daily up to P14 before sacrifice at P15.MK2206 treatment of Pkd1 litters commenced at P4 and were performed daily up to P10 before sacrifice at P11. MK2206 was delivered orally by pipette in a solution of 27 mg/ml MK2206.2HCI (S1078, Selleck Chemicals) in 30% Capsitol (Cydex) and 5% glucose (49163-100ML, Sigma-Aldrich). Mice were dosed with a volume to deliver MK2206 up to 75 mg/kg as indicated. Mouse body weights were recorded daily. Solutions were stored at 4 degrees for up to 2 weeks. Mice were culled via cervical dislocation or decapitation, as most appropriate for their age following ethical guidelines. Procedures were all conducted by ethically approved and trained personnel. Mice were measured for body weight, with ear tissue, urine and kidneys collected. Ear tissue and urine was stored at -20 degrees. Newborn and P4 kidneys were fixed whole in 4% PFA for 16 hrs at 4 degrees, while the kidney capsule membrane was removed from older mouse kidneys, with the kidney cut into halves and fixed in 10% NBF for 16 hrs at room temperature. Half the kidney samples were sent for histological processing and the other half were snap frozen and stored at -80 degrees until processed for RNA, alpha analysis and/or western blotting. Kidney tissues were paraffin imbedded and sectioned at 4 μm for most analysis with the exception of being sectioned at 10 μm for cilia analysis. Antigen retrieval was performed in Citrate buffer pH6 using Tefal pressure cooker or using a DAKO […] system as indicated. Antibody staining was performed as described elsewhere (Cottle et al., (2013) Cell reports, 3: 427-441), except triton x-100 was included in blocking buffers, and cover slips mounted using Prolong Gold (Invitrogen). Antibodies and stains are listed below. Imaging was using an Aperio brightfield and fluorescent scanners (MHP), Olympus Fluoview 500 (Biochemistry Imaging Suite), Nikon C2 or Leica SP8 confocal microscope (MMI). All quantifications with the exception of Nanostring analysis and Chi squared tests for analysis of mendelian ratios, were analyzed using the unpaired Student's t-test assuming unequal variance in Microsoft Excel and P≤0.05 values were considered significant. One or two tailed tests were selected as appropriate for hypothesis. Values presented are Mean±Standard Error of the Mean (S.E.M). 2K/BW % was calculated as the combined kidney weight over total body weight percentage. Albumin Creatinine Ratios (ACR) were calculated as μg Albumin over mg of Creatinine. Cyst identity was measured as a proportion of cyst epithelial area for each marker out of total sum of cyst epithelial areas of all markers (adjusted for marker co-localisation). Cystic index % is calculated as the proportion of cystic space occupied out of total kidney area in DBA-stained kidney longitudinal cross-sections. Cyst number reflects the average number of cysts counted per DBA-stained longitudinal kidney cross section. Cyst size is the average cross-sectional cyst size (mm^2) of cysts sampled from DBA-stained kidney longitudinal cross sections. Due to escape of Cre activity at the Aurka locus in cysts, unless otherwise indicated references to Inpp5e^Δ/Δ; Aurka^Δ/Δ immunostains and their quantifications reflect non-cystic regions throughout this study.

Inpp5e^Δ/Δ mice = experiment: Oral MK2206 treatment of Inpp5e^Δ/Δ mice; type: in vivo, mouse
Procedure: as §1

[1] = daily P4 to P10, P11, dose dependent, up to 75 mg/kg
[2] = oral, daily from P9, sacrificed at P15, vs vehicle

Compound	cyst number (mTOR)	cyst size (mTOR)	cyst number (Pkd1^Δ/Δ mice; [1])	cyst size (Pkd1^Δ/Δ mice; [1])	cystic index (Pkd1^Δ/Δ mice; [1])	kidney to body weight ratio (Pkd1^Δ/Δ mice; [1])	severity of PKD (Pkd1^Δ/Δ mice; daily P4 to P10, sacrifice at P11, up to 75 mg/kg)	% AKT pS473 high collecting duct cells (Inpp5e^Δ/Δ mice; cystic Inpp5e^Δ/Δ and control mice, Vehicle or MK2206)	acquisition of cysts (average cyst number per section) (Inpp5e^Δ/Δ mice; [2])	ciliation (Inpp5e^Δ/Δ mice; [2])	cyst size (Inpp5e^Δ/Δ mice; [2])	cystic index (Inpp5e^Δ/Δ mice; [2])	kidney size (2K/BW %) (Inpp5e^Δ/Δ mice; [2])	proportion of AURKA high cells (Inpp5e^Δ/Δ mice; [2])	proportion of collecting duct cells with phosphorylated AKT (AKT pT308 high) (Inpp5e^Δ/Δ mice; [2])
CO[C@H]1C[C@@H]2CC[C@@H](C)[C@@](O)(O2)C(=O)C(=O)N2CCCC[C@H]2C(=O)O[C@H]([C@H](C)C[C@@H]2CC[C@@H](OCCO)[C@H](OC)C2)CC(=O)[C@H](C)/C=C(\C)[C@@H](O)[C@@H](OC)C(=O)[C@H](C)C[C@H](C)/C=C/C=C/C=C/1C [Everolimus]	not number	reduction in cyst size													
NC1(c2ccc(-c3nc4ccn5c(=O)[nH]nc5c4cc3-c3ccccc3)cc2)CCC1 [MK2206]			reducing	reducing	reducing	reducing	reduce the severity of PKD in a dose dependent manner	reduces AKT pS473 detection	slowed the acquisition of cysts	increased ciliation	reduced cyst size	reduced the cystic index	significantly smaller than vehicle treated controls	also reduced	reduction in the proportion of collecting duct cells with phosphorylated AKT
